Measured values: US10752604B2, “C-glucoside derivative containing fused phenyl ring or pharmaceutically acceptable salt thereof, process for preparing same, and pharmaceutical composition comprising same” (Je II Pharmaceutical Co., Ltd., priority 2016, dated 2020)

Experiments:
human SGLT1 = human SGLT1 (Homo sapiens (Human), UniProt P13866); experiment: Inhibitory effect on human SGLT1 activity (14C-AMG uptake in CHO cells expressing hSGLT1); assay type: cell-based; details: 14C-AMG transport, CHO cells expressing hSGLT1, 2 hours
Text: (§1) Human SGLT1 (hSGLT1), human SGLT2 (hSGLT2) genes were amplified from a human marathon-ready cDNA library (Clontech)) by means of an PCR method, after which resulting amplified sequences were combined with a pcDNA 3.1(+) vector, which was a mammalian expression vector, so as to prepare recombinant expression vectors pcDNA3.1(+)/hSGLT1, pcDNA3.1(+)/hSGLT2. Resulting recombinant expression vectors were transformed into Chinese Hamster Ovarian cells, after which stably transformed clones were selected by means of a colony picking method by using a resistance to G418, a selective marker included in the vector. Out of selected clones, clones for expressing hSGLT1 and hSGLT2 were selected based on activity in analysis of ^14C-α-methyl-D-glucopyranoside (^14C-AMG) transport.
To analyze a sodium-dependent glucose transport, cells for expressing hSGLT1 and hSGLT2 were seeded at 1×10^5 cells per well into a 96-well culture plate, after which resulting cells were cultured in an RPMI 1640 medium containing 10% fetal bovine serum (FBS). In 1 day after culture, the resulting cells were cultured in a pre-treatment buffer solution (10 mM HEPES, 5 mM tris, 140 mM choline chloride, 2 mM KCl, 1 mM CaCl2 and 1 mM MgCl2, pH 7.4) under 37° C./5% CO2 conditions for 10 minutes. Then, the resulting cells were cultured in a uptake buffer solution (10 mM HEPES, 5 mM tris, 140 mM NaCl, 2 mM KCl, 1 mM CaCl2, 1 mM MgCl2 and 1 mM AMGS pH 7.4) containing 14C-AMG (8 μM) and a compound of the present disclosure or a dimethyl sulfoxide (DMSO) vehicle under 37° C./5% CO2 conditions for 2 hours. After culture, the cells were washed twice with a washing buffer solution (a pre-treatment buffer solution containing 10 mM AMG at room temperature), after which a radiation thereof was measured by using a liquid scintillation counter. IC50 of each compound was measured according to a non-linear regression analysis by using SigmaPlot (Document Analytical Biochemistry 429: 70-75, Molecular and Cellular Biochemistry 280: 91-98, 2005). SGLT1/2 in-vitro assay results are shown in a following Table 1.

human SGLT2 = human SGLT2 (Homo sapiens (Human), UniProt P31639); experiment: Inhibitory effect on human SGLT2 activity (14C-AMG uptake in CHO cells expressing hSGLT2); assay type: cell-based; details: 14C-AMG transport, CHO cells expressing hSGLT2, 2 hours
Text: as §1
In 1 day after culture, the resulting cells were cultured in a pre-treatment buffer solution (10 mM HEPES, 5 mM tris, 140 mM choline chloride, 2 mM KCl, 1 mM CaCl2 and 1 mM MgCl2, pH 7.4) under 37° C./5% CO2 conditions for 10 minutes. Then, the resulting cells were cultured in a uptake buffer solution (10 mM HEPES, 5 mM tris, 140 mM NaCl, 2 mM KCl, 1 mM CaCl2, 1 mM MgCl2 and 1 mM AMGS pH 7.4) containing 14C-AMG (8 μM) and a compound of the present disclosure or a dimethyl sulfoxide (DMSO) vehicle under 37° C./5% CO2 conditions for 2 hours. After culture, the cells were washed twice with a washing buffer solution (a pre-treatment buffer solution containing 10 mM AMG at room temperature), after which a radiation thereof was measured by using a liquid scintillation counter.

human SGLT1, sequence (P13866 whole entry): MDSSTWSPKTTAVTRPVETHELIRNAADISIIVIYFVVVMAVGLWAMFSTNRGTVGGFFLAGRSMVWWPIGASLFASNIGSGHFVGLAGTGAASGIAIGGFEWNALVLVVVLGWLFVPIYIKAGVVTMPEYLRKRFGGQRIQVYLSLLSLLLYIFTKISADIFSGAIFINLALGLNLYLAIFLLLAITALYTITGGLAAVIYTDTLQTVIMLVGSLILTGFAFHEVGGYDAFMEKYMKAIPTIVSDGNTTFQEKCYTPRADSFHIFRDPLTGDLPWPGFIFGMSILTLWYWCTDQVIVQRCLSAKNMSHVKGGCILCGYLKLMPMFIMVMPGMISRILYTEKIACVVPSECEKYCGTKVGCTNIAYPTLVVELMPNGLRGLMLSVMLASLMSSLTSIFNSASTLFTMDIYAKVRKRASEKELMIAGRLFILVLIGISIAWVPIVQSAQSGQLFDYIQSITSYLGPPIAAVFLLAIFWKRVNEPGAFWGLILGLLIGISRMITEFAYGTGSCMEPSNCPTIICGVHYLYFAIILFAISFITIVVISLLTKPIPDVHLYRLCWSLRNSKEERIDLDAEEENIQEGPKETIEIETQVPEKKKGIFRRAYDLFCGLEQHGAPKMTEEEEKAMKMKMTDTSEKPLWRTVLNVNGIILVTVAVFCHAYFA
human SGLT2, sequence (P31639 whole entry): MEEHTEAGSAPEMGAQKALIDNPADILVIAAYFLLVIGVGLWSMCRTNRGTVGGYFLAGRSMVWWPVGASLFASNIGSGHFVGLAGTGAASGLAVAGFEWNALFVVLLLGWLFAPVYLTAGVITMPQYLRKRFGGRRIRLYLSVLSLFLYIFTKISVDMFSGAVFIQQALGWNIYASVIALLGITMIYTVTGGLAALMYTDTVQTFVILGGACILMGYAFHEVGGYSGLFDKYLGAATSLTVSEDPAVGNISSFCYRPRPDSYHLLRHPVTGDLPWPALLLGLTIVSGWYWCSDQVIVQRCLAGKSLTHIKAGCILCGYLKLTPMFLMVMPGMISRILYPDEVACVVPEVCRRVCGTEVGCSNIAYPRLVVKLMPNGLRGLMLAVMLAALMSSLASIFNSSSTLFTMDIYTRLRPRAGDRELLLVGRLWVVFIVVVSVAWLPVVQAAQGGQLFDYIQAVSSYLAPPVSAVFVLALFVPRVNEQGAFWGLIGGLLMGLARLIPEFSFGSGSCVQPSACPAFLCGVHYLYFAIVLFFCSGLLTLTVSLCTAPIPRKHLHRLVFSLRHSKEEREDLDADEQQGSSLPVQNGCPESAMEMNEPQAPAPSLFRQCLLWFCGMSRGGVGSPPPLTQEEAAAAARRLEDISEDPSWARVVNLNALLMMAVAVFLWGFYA

Row | Structure (SMILES) | IC50 (human SGLT1) [nM] | IC50 (human SGLT2) [nM]
1 | CSc1ccc(Cc2cc([C@@H]3O[C@H](CO)[C@@H](O)[C@H](O)[C@H]3O)c(C)c3c2CCC3)cc1 [Example 13] | 15 | 1.2
2 | CCc1ccc(Cc2cc([C@@H]3O[C@H](CO)[C@@H](O)[C@H](O)[C@H]3O)c(CC(C)C)c3c2CCC3)cc1 [Example 65, (2S,3R,4R,5S,6R)-2-(7-(4-ethylbenzyl)-4-isobutyl-2,3-dihydro-1H-indene-5-yl)-6-(hydroxymethyl)tetrahydro-2H-pyran-3,4,5-triol] | 1610 | 38
3 | CCOc1ccc(Cc2cc([C@@H]3O[C@H](CO)[C@@H](O)[C@H](O)[C@H]3O)c(C)c3c2CCC3)cc1 [Example 2, (2S,3R,4R,5S,6R)-2-(7-(4-ethoxybenzyl)-4-methyl-2,3-dihydro-1H-indene-5-yl)-6-(hydroxymethyl)tetrahydro-2H-pyran-3,4,5-triol] | 76 | 3
4 | Cc1ccc(Cc2cc([C@@H]3O[C@H](CO)[C@@H](O)[C@H](O)[C@H]3O)c(CC(C)C)c3c2CCC3)cc1 [Example 64, (2R,3S,4R,5R,6S)-2-(hydroxymethyl)-6-(4-isobutyl-7-(4-methylbenzyl)-2,3-dihydro-1H-indene-5-yl)tetrahydro-2H-pyran-3,4,5-triol] | 518 | 19.1
5 | Cc1ccc([C@@H]2O[C@H](CO)[C@@H](O)[C@H](O)[C@H]2O)cc1Cc1ccc(-c2ccc(F)cc2)s1 [Canagliflozin, reference compound] | 550 | 4.9
6 | Cc1c([C@@H]2O[C@H](CO)C(O)[C@H](O)C2O)cc(Cc2ccc(OC(C)C)cc2)c2c1CCC2 (stereo in doubt) [Example 3, (2R,3S,4R,5R,6S)-2-(hydroxymethyl)-6-(7-(4-isopropoxybenzyl)-4-methyl-2,3-dihydro-1H-indene-5-yl)tetrahydro-2H-pyran-3,4,5-triol] | 142 | –
7 | C=Cc1ccc(Cc2cc([C@@H]3O[C@H](CO)[C@@H](O)[C@H](O)[C@H]3O)c(C)c3c2OCC3)cc1 [Example 34, (2R,3S,4R,5R,6S)-2-(hydroxymethyl)-6-(4-methyl-7-(4-vinylbenzyl)-2,3-dihydrobenzofuran-5-yl)tetrahydro-2H-pyran-3,4,5-triol] | 295 | –
8 | CCCc1ccc(Cc2cc([C@@H]3O[C@H](CO)C(O)[C@H](O)C3O)c(C)c3c2CCC3)cc1 (stereo in doubt) [Example 6, (2R,3S,4R,5R,6S)-2-(hydroxymethyl)-6-(4-methyl-7-(4-propylbenzyl)-2,3-dihydro-1H-indene-5-yl)tetrahydro-2H-pyran-3,4,5-triol] | 190 | –
9 | CCc1ccc(Cc2cc([C@@H]3O[C@H](CO)C(O)[C@H](O)C3O)c(C)c3c2CCC3)cc1 (stereo in doubt) [Example 5, (2S,3R,4R,5S,6R)-2-(7-(4-ethylbenzyl)-4-methyl-2,3-dihydro-1H-indene-5-yl)-6-(hydroxymethyl)tetrahydro-2H-pyran-3,4,5-triol] | 40 | 2.8
10 | COc1ccc(Cc2cc([C@@H]3O[C@H](CO)[C@@H](O)[C@H](O)[C@H]3O)c(C(C)C)c3c2CCC3)cc1 [Example 61, (2R,3S,4R,5R,6S)-2-(hydroxymethyl)-6-(4-isopropyl-7-(4-methoxybenzyl)-2,3-dihydro-1H-indene-5-yl)tetrahydro-2H-pyran-3,4,5-triol] | 199 | 2.04
11 | Cc1c(C2O[C@H](CO)C(O)[C@H](O)C2O)cc(Cc2ccc(C(C)C)cc2)c2c1CCC2 (stereo in doubt) [Example 7, (2R,3S,4R,5R,6S)-2-(hydroxymethyl)-6-(7-(4-isopropylbenzyl)-4-methyl-2,3-dihydro-1H-indene-5-yl)tetrahydro-2H-pyran-3,4,5-triol] | 296 | –
12 | CCc1c([C@@H]2O[C@H](CO)[C@@H](O)[C@H](O)[C@H]2O)cc(Cc2ccc(C)cc2)c2c1CCC2 [Example 41, (2S,3R,4R,5S,6R)-2-(4-ethyl-7-(4-methylbenzyl)-2,3-dihydro-1H-indene-5-yl)-6-(hydroxymethyl)tetrahydro-2H-pyran-3,4,5-triol] | 41.8 | 3.68
13 | Cc1c([C@@H]2O[C@H](CO)[C@@H](O)[C@H](O)[C@H]2O)cc(Cc2ccc(Cl)cc2)c2c1CCC2 [Example 16, (2S,3R,4R,5S,6R)-2-(7-(4-chlorobenzyl)-4-methyl-2,3-dihydro-1H-indene-5-yl)-6-(hydroxymethyl)tetrahydro-2H-pyran-3,4,5-triol] | 14.3 | –

Results, then the compound that gave them:

Row | IC50 (human SGLT1) [nM] | IC50 (human SGLT2) [nM] | Structure (SMILES)
14 | 236 | 9.04 | CCCc1c([C@@H]2O[C@H](CO)[C@@H](O)[C@H](O)[C@H]2O)cc(Cc2ccc(OC)cc2)c2c1CCC2 [Example 52, (2R,3S,4R,5R,6S)-2-(hydroxymethyl)-6-(7-(4-methoxybenzyl)-4-propyl-2,3-dihydro-1H-indene-5-yl)tetrahydro-2H-pyran-3,4,5-triol]
15 | 94.7 | 1.83 | CCCc1c([C@@H]2O[C@H](CO)[C@@H](O)[C@H](O)[C@H]2O)cc(Cc2ccc(C)cc2)c2c1CCC2 [Example 53, (2R,3S,4R,5R,6S)-2-(hydroxymethyl)-6-(7-(4-methylbenzyl)-4-propyl-2,3-dihydro-1H-indene-5-yl)tetrahydro-2H-pyran-3,4,5-triol]
16 | 9.1 | 1.3 | COc1ccc(Cc2cc([C@@H]3O[C@H](CO)[C@@H](O)[C@H](O)[C@H]3O)c(C)c3c2CCC3)cc1 [Example 1, (2R,3S,4R,5R,6S)-2-(hydroxymethyl)-6-(7-(4-methoxybenzyl)-4-methyl-2,3-dihydro-1H-indene-5-yl)tetrahydro-2H-pyran-3,4,5-triol]
17 | 289 | 12.1 | CCCCc1c([C@@H]2O[C@H](CO)[C@@H](O)[C@H](O)[C@H]2O)cc(Cc2ccc(C)cc2)c2c1CCC2 [Example 58, (2S,3R,4R,5S,6R)-2-(4-butyl-7-(4-methylbenzyl)-2,3-dihydro-1H-indene-5-yl)-6-(hydroxymethyl)tetrahydro-2H-pyran-3,4,5-triol]
18 | 60.5 | 2.73 | CCc1c([C@@H]2O[C@H](CO)[C@@H](O)[C@H](O)[C@H]2O)cc(Cc2ccc(OC)cc2)c2c1CCC2 [Example 42, (2S,3R,4R,5S,6R)-2-(4-ethyl-7-(4-methoxybenzyl)-2,3-dihydro-1H-indene-5-yl)-6-(hydroxymethyl)tetrahydro-2H-pyran-3,4,5-triol]
19 | 373 | 5.86 | CCCCc1c([C@@H]2O[C@H](CO)[C@@H](O)[C@H](O)[C@H]2O)cc(Cc2ccc(OC)cc2)c2c1CCC2 [Example 57, (2S,3R,4R,5S,6R)-2-(4-butyl-7-(4-methoxybenzyl)-2,3-dihydro-1H-indene-5-yl)-6-(hydroxymethyl)tetrahydro-2H-pyran-3,4,5-triol]
